In brackets after ≈: the same amount, converted by molar mass. Entries after “also recorded” stand apart in the source; their conditions may differ. Marks after values point to notes of the source that are not given here.
Columns and labels:
[1] = design: method as in previously reported; conditions: ref previously reported; cited from earlier work
[2] = Kinetic solubility in PBS (HPLC solubility assay); conditions: PBS, aqueous buffer, kinetic from dmso stock
NOD2 = NOD2 (Homo sapiens, UniProt Q9HC29); assay: NOD2 NF-κB SEAP reporter assay in HEK-Blue hNOD2 cells
Chain of NOD2 (Q9HC29 whole entry): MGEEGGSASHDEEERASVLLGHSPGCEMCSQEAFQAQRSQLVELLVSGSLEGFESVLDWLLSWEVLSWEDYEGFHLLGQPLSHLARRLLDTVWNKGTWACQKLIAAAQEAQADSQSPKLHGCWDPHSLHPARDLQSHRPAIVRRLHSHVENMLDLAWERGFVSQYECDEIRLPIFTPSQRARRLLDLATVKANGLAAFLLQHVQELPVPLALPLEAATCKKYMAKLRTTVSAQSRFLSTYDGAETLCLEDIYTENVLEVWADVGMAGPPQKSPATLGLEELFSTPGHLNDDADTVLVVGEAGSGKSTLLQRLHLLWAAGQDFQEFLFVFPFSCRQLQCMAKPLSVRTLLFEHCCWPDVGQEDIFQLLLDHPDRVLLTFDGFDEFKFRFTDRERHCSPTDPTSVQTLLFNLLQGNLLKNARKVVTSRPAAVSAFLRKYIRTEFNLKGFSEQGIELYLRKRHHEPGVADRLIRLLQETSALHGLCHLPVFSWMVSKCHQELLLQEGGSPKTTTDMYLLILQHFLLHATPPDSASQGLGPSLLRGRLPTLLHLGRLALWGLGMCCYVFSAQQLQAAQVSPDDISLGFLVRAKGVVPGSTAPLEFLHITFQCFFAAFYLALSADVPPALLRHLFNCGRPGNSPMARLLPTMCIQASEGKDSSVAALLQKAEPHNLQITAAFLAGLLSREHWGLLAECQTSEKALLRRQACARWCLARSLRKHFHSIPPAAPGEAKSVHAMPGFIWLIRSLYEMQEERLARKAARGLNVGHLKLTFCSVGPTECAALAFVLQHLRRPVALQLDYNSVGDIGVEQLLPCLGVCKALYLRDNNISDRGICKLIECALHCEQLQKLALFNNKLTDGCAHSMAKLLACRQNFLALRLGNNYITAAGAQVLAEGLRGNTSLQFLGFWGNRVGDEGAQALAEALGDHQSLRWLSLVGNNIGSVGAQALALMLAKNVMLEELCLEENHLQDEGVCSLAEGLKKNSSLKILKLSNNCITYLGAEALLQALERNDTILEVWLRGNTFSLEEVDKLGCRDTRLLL

[3] = design: method as in previous studies; conditions: kinetic solubility; ref previous studies; cited from earlier work
human PBMCs = conditions: 1 μM, 18 h
TLR4 = TLR4 (Homo sapiens, UniProt O00206+Q9Y6Y9); assay: TLR4 NF-κB SEAP reporter assay in HEK-Blue hTLR4 cells
Chain of TLR4 (O00206 24-839): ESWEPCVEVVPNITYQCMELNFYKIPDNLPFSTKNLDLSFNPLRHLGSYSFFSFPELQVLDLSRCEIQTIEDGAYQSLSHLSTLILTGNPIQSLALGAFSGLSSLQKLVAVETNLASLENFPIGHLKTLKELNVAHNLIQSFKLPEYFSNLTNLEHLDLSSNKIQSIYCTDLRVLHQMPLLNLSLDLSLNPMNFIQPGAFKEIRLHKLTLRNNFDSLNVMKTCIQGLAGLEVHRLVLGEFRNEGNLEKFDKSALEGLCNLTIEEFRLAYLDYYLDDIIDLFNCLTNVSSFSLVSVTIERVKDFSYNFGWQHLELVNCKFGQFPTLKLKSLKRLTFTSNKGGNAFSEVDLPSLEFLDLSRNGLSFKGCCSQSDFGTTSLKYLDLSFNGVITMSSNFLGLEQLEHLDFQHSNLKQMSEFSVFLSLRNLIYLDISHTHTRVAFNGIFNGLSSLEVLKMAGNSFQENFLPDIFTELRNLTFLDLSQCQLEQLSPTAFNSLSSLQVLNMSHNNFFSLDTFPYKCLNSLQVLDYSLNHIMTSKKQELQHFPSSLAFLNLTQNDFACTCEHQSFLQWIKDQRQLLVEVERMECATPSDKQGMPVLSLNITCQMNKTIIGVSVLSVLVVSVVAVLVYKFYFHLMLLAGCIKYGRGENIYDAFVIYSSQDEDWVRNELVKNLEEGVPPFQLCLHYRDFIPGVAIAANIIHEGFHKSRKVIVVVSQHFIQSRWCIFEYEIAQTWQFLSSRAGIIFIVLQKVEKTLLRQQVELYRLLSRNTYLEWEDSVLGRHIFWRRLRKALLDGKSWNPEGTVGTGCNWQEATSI
Chain of TLR4 (Q9Y6Y9 17-160 limits assumed): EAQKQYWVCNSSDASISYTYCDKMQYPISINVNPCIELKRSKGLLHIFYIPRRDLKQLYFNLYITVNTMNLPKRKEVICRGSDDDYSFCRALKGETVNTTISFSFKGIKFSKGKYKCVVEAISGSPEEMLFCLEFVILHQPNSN

[4] = Solubility sample 1, Tables S1–S3, replicate 1
[5] = Solubility sample 2, Tables S1–S3, replicate 2
[6] = solubility in PBS, kinetic solubility, HPLC solubility assay
[7] = 10 μM, 18 h, NF-κB transcriptional activity (SEAP) relative to 0.1% DMSO

NOD2 activation, fold increase (NOD2; 2 μM, 18 h, NF-κB transcriptional activity (SEAP) relative to 0.1% DMSO) | Compound | immunostimulatory activity [1] | solubility [2, 4] [µM] | solubility [2, 5] [µM] | solubility [2, 6] [µM] | solubility in PBS [3] | overall cytokine production (human PBMCs) | production of IL-6, IL-10, TNF-α, and IFN-γ (human PBMCs) | NOD2 activation at 10 μM, fold increase (NOD2; [7]) [fold increase] | NOD2 agonist activity (NOD2; compared with NOD2 agonist 3 and MDP (4 μM)) | TLR4 activation at 10 μM, fold increase (TLR4; [7]) [fold increase] | maximum TLR4 activation (TLR4; HEK-Blue hTLR4, 21 at 10 μM) [fold] | concentration at which compound activated TLR4 (TLR4; dose-response 0.5–10 μM (17–21) or 1–100 μM (27–31)) [µM]
– | COc1cc(/C=C/C(=O)NCC(=O)N[C@H](C(=O)N[C@H](CCC(=O)OC2CCCC2)C(=O)OC2CCCC2)C(C)C)ccc1OC(=O)CCCCCNC(=O)CSc1nc2c([nH]c3ccccc32)c(=O)n1-c1ccccc1 [Compound 2, reference compound] | inactivity; also recorded: lacked immunostimulatory activity | 0.26 (≈ 0.276 µg/mL) | 0.44 (≈ 0.467 µg/mL) | 0.35 (≈ 0.372 µg/mL) | – | – | – | – | – | – | – | –
3.06 ^d fold increase | CCOC(=O)C(CCC(=O)O)NC(=O)C(NC(=O)CNC(=O)C=Cc1ccc(O)c(OC)c1)C(C)C (stereo not shown) [Compound 3, reference compound] | – | – | – | – | 414.8 ^c μM | – | – | – | – | – | – | –
– | CCOC(=O)[C@@H](CCC(=O)N1CCC(CN2CCN(C(=O)Cc3ccc(C(C(=O)NC4CCCC4)N(C(=O)c4cc(-c5ccccc5)n(-c5ccccc5)n4)c4ccc5c(c4)CCC5)cc3)CC2)CC1)NC(=O)[C@@H](NC(=O)CNC(=O)/C=C/c1ccc(O)c(OC)c1)C(C)C (stereo partly drawn) [Compound 21, Ethyl (2R)-5-(4-((4-(2-(4-(2-(Cyclopentylamino)-1-(N-(2,3-dihydro-1H-inden-5-yl)-1,5-diphenyl-1H-pyrazole-3-carboxamido)-2-oxoethyl)phenyl)acetyl)piperazin-1-yl)methyl)piperidin-1-yl)-2-((S)-2-(2-((E)-3-(4-hydroxy-3-methoxyphenyl)acrylamido)acetamido)-3-methylbutanamido)-5-oxopentanoate] | – | 0.34 (≈ 0.44 µg/mL) | 0.32 (≈ 0.414 µg/mL) | 0.33 (≈ 0.427 µg/mL) | – | most potent immunomodulator in the series | moderately enhanced | 3.31 | comparable efficiency to MDP | 5.30 | 5.30 | 0.5
